What was measured:
female rats = assay: Plasma metabolite profiling (GC-MS/LC-MS), markers for liver enzyme induction in female rats, 28-day gavage study; type: in vivo, rat; settings: high dose
Method: (§1) A group of each 5 male and female rats was dosed once daily with the indicated compounds (see tables below) at 10 and 100 mg/kg body weight per gavage over 28 days. Additional groups of each 5 male and female animals served as controls. Before starting the treatment period, animals, which were 62-64 days old when supplied, were acclimatized to the housing and environmental conditions for 7 days. All animals of the animal population were kept under the same constant temperature (20-24±3° C.) and the same constant humidity (30-70%). Each animal of the animal population was kept in a separate cage. The animals of the animal population are fed ad libitum. The food to be used was be essentially free of chemical or microbial contaminants. Drinking water was also offered ad libitum. Accordingly, the water was be free of chemical and microbial contaminants as laid down in the European Drinking Water Directive 98/83/EG. The illumination period was 12 hours light followed by 12 hours darkness (12 hours light, from 6:00 to 18:00, and 12 hours darkness, from 18:00 to 6:00).
(§2) In the morning of day 7, 14, and 28, blood was taken from the retroorbital venous plexus from fasted anaesthetized animals. From each animal, 1 ml of blood was collected with EDTA as anticoagulant. The samples were be centrifuged for generation of plasma. All plasma samples were covered with a N2 atmosphere and then stored at—80° C. until analysis.
(§3) For mass spectrometry-based metabolite profiling analyses plasma samples were extracted and a polar and a non-polar fraction was obtained. For GC-MS analysis, the non-polar fraction was treated with methanol under acidic conditions to yield the fatty acid methyl esters. Both fractions were further derivatised with O-methyl-hydroxyamine hydrochloride and pyridine to convert oxo-groups to O-methyloximes and subsequently with a silylating agent before analysis. In LC-MS analysis, both fractions were reconstituted in appropriate solvent mixtures. HPLC was performed by gradient elution on reversed phase separation columns. For mass spectrometric detection metanomics proprietary technology was applied which allows target and high sensitivity MRM (Multiple Reaction Monitoring) profiling in parallel to a full screen analysis.
(§4) Following comprehensive analytical validation steps, the data for each analyte were normalized against data from pool samples. These samples were run in parallel through the whole process to account for process variability. The significance of treatment group values specific for sex, dose group and metabolite was determined by comparing means of the treated groups to the means of the respective untreated control groups using Student's t-test. Normalized treatment group values and their significance were fed into a database for further statistics and data mining processes.
(§5) The changes of the group of plasma metabolites being indicative for liver enzyme induction after treatment of the rats are shown in the following tables: […]

male rats = assay: Plasma metabolite profiling (GC-MS/LC-MS), markers for liver enzyme induction in male rats, 28-day gavage study; type: in vivo, rat; settings: high dose
Method: as §1, §2, §3, §4, §5

Clc1cc(Cl)c(Cl)c(Cl)c1Cl [Pentachlorobenzene]
1,2-Dioleoyl-sn-glycero-3-phosphatidyl-L-serine, change of plasma metabolite, fh7 (female rats; day 7, relative to controls): 1.28
Arachidonic acid (C20:cis-[5,8,11,14]4), change of plasma metabolite, fh7 (female rats; day 7, relative to controls): 1.27
Behenic acid (C22:0), change of plasma metabolite, fh7 (female rats; day 7, relative to controls): 1.30
Cholesterol, change of plasma metabolite, fh7 (female rats; day 7, relative to controls): 1.23
Docosahexaenoic acid (C22:cis[4,7,10,13,16,19]6), change of plasma metabolite, fh7 (female rats; day 7, relative to controls): 1.79
Dodecanol, change of plasma metabolite, fh7 (female rats; day 7, relative to controls): 1.17
Eicosanoic acid (C20:0), change of plasma metabolite, fh7 (female rats; day 7, relative to controls): 1.13
Galactose, lipid fraction, change of plasma metabolite, fh7 (female rats; day 7, relative to controls): 1.10
Glycerol, lipid fraction, change of plasma metabolite, fh7 (female rats; day 7, relative to controls): 2.38
Glycerolphosphate, lipid fraction, change of plasma metabolite, fh7 (female rats; day 7, relative to controls): 1.27
Heptadecanoic acid (C17:0), change of plasma metabolite, fh7 (female rats; day 7, relative to controls): 1.32
Lignoceric acid (C24:0), change of plasma metabolite, fh7 (female rats; day 7, relative to controls): 1.39
Linoleic acid (C18:cis[9,12]2), change of plasma metabolite, fh7 (female rats; day 7, relative to controls): 2.11
Nervonic acid (C24:1), change of plasma metabolite, fh7 (female rats; day 7, relative to controls): 0.97
Palmitic acid (C16:0), change of plasma metabolite, fh7 (female rats; day 7, relative to controls): 1.59
Phosphatidylcholine (C18:0/C18:2), change of plasma metabolite, fh7 (female rats; day 7, relative to controls): 1.14
Sphingolipids (3- and 5-Methoxysphingosine), change of plasma metabolite, fh7 (female rats; day 7, relative to controls): 1.43
Stearic acid (C18:0), change of plasma metabolite, fh7 (female rats; day 7, relative to controls): 1.30
Threonic acid, change of plasma metabolite, fh7 (female rats; day 7, relative to controls): 3.67
Tricosanoic acid (C23:0), change of plasma metabolite, fh7 (female rats; day 7, relative to controls): 1.18
gamma-Linolenic acid (C18:cis[6,9,12]3), change of plasma metabolite, fh7 (female rats; day 7, relative to controls): 1.71
myo-Inositol-2-monophosphate, lipid fraction, change of plasma metabolite, fh7 (female rats; day 7, relative to controls): 1.81
1,2-Dioleoyl-sn-glycero-3-phosphatidyl-L-serine, change of plasma metabolite, fh14 (female rats; day 14, relative to controls): 1.72
Arachidonic acid (C20:cis-[5,8,11,14]4), change of plasma metabolite, fh14 (female rats; day 14, relative to controls): 1.89
Behenic acid (C22:0), change of plasma metabolite, fh14 (female rats; day 14, relative to controls): 1.60
Cholesterol, change of plasma metabolite, fh14 (female rats; day 14, relative to controls): 1.64
Docosahexaenoic acid (C22:cis[4,7,10,13,16,19]6), change of plasma metabolite, fh14 (female rats; day 14, relative to controls): 2.49
Dodecanol, change of plasma metabolite, fh14 (female rats; day 14, relative to controls): 1.79
Eicosanoic acid (C20:0), change of plasma metabolite, fh14 (female rats; day 14, relative to controls): 2.76
Galactose, lipid fraction, change of plasma metabolite, fh14 (female rats; day 14, relative to controls): 1.28
Glycerol, lipid fraction, change of plasma metabolite, fh14 (female rats; day 14, relative to controls): 7.37
Glycerolphosphate, lipid fraction, change of plasma metabolite, fh14 (female rats; day 14, relative to controls): 1.52
Heptadecanoic acid (C17:0), change of plasma metabolite, fh14 (female rats; day 14, relative to controls): 1.89
Lignoceric acid (C24:0), change of plasma metabolite, fh14 (female rats; day 14, relative to controls): 1.60
Linoleic acid (C18:cis[9,12]2), change of plasma metabolite, fh14 (female rats; day 14, relative to controls): 5.23
Nervonic acid (C24:1), change of plasma metabolite, fh14 (female rats; day 14, relative to controls): 1.55
Palmitic acid (C16:0), change of plasma metabolite, fh14 (female rats; day 14, relative to controls): 3.46
Phosphatidylcholine (C18:0/C18:2), change of plasma metabolite, fh14 (female rats; day 14, relative to controls): 1.20
Sphingolipids (3- and 5-Methoxysphingosine), change of plasma metabolite, fh14 (female rats; day 14, relative to controls): 1.77
Stearic acid (C18:0), change of plasma metabolite, fh14 (female rats; day 14, relative to controls): 1.87
Threonic acid, change of plasma metabolite, fh14 (female rats; day 14, relative to controls): 3.63
Tricosanoic acid (C23:0), change of plasma metabolite, fh14 (female rats; day 14, relative to controls): 1.46
gamma-Linolenic acid (C18:cis[6,9,12]3), change of plasma metabolite, fh14 (female rats; day 14, relative to controls): 4.53
myo-Inositol-2-monophosphate, lipid fraction, change of plasma metabolite, fh14 (female rats; day 14, relative to controls): 3.61
1,2-Dioleoyl-sn-glycero-3-phosphatidyl-L-serine, change of plasma metabolite, fh28 (female rats; day 28, relative to controls): 1.51
Arachidonic acid (C20:cis-[5,8,11,14]4), change of plasma metabolite, fh28 (female rats; day 28, relative to controls): 1.50
Behenic acid (C22:0), change of plasma metabolite, fh28 (female rats; day 28, relative to controls): 1.41
Cholesterol, change of plasma metabolite, fh28 (female rats; day 28, relative to controls): 1.62
Docosahexaenoic acid (C22:cis[4,7,10,13,16,19]6), change of plasma metabolite, fh28 (female rats; day 28, relative to controls): 1.57
Dodecanol, change of plasma metabolite, fh28 (female rats; day 28, relative to controls): 1.40
Eicosanoic acid (C20:0), change of plasma metabolite, fh28 (female rats; day 28, relative to controls): 1.98
Galactose, lipid fraction, change of plasma metabolite, fh28 (female rats; day 28, relative to controls): 1.40
Glycerol, lipid fraction, change of plasma metabolite, fh28 (female rats; day 28, relative to controls): 2.68
Glycerolphosphate, lipid fraction, change of plasma metabolite, fh28 (female rats; day 28, relative to controls): 1.43
Heptadecanoic acid (C17:0), change of plasma metabolite, fh28 (female rats; day 28, relative to controls): 1.54
Lignoceric acid (C24:0), change of plasma metabolite, fh28 (female rats; day 28, relative to controls): 1.75
Linoleic acid (C18:cis[9,12]2), change of plasma metabolite, fh28 (female rats; day 28, relative to controls): 2.69
Nervonic acid (C24:1), change of plasma metabolite, fh28 (female rats; day 28, relative to controls): 1.46
Palmitic acid (C16:0), change of plasma metabolite, fh28 (female rats; day 28, relative to controls): 1.86
Phosphatidylcholine (C18:0/C18:2), change of plasma metabolite, fh28 (female rats; day 28, relative to controls): 1.23
Sphingolipids (3- and 5-Methoxysphingosine), change of plasma metabolite, fh28 (female rats; day 28, relative to controls): 1.73
Stearic acid (C18:0), change of plasma metabolite, fh28 (female rats; day 28, relative to controls): 1.65
Threonic acid, change of plasma metabolite, fh28 (female rats; day 28, relative to controls): 4.57
Tricosanoic acid (C23:0), change of plasma metabolite, fh28 (female rats; day 28, relative to controls): 1.45
gamma-Linolenic acid (C18:cis[6,9,12]3), change of plasma metabolite, fh28 (female rats; day 28, relative to controls): 2.98
myo-Inositol-2-monophosphate, lipid fraction, change of plasma metabolite, fh28 (female rats; day 28, relative to controls): 1.93
1,2-Dioleoyl-sn-glycero-3-phosphatidyl-L-serine, change of plasma metabolite, mh7 (male rats; day 7, relative to controls): 1.27
Behenic acid (C22:0), change of plasma metabolite, mh7 (male rats; day 7, relative to controls): 1.43
Cholesterol, change of plasma metabolite, mh7 (male rats; day 7, relative to controls): 1.31
Eicosapentanoic acid, change of plasma metabolite, mh7 (male rats; day 7, relative to controls): 1.4
Galactose, lipid fraction, change of plasma metabolite, mh7 (male rats; day 7, relative to controls): 1.37
Lignoceric acid (C24:0), change of plasma metabolite, mh7 (male rats; day 7, relative to controls): 1.32
Nervonic acid (C24:1), change of plasma metabolite, mh7 (male rats; day 7, relative to controls): 1.30
Phosphatidylcholine (C18:0/C18:2), change of plasma metabolite, mh7 (male rats; day 7, relative to controls): 1.01
Phosphatidylcholine (C18:0/C22:6), change of plasma metabolite, mh7 (male rats; day 7, relative to controls): 1.12
Sphingolipids (3- and 5-Methoxysphingosine), change of plasma metabolite, mh7 (male rats; day 7, relative to controls): 1.42
Stearic acid (C18:0), change of plasma metabolite, mh7 (male rats; day 7, relative to controls): 1.34
Threonic acid, change of plasma metabolite, mh7 (male rats; day 7, relative to controls): 3.06
1,2-Dioleoyl-sn-glycero-3-phosphatidyl-L-serine, change of plasma metabolite, mh14 (male rats; day 14, relative to controls): 1.35
Behenic acid (C22:0), change of plasma metabolite, mh14 (male rats; day 14, relative to controls): 1.26
Cholesterol, change of plasma metabolite, mh14 (male rats; day 14, relative to controls): 1.46
Eicosapentanoic acid, change of plasma metabolite, mh14 (male rats; day 14, relative to controls): 1.4
Galactose, lipid fraction, change of plasma metabolite, mh14 (male rats; day 14, relative to controls): 1.37
Lignoceric acid (C24:0), change of plasma metabolite, mh14 (male rats; day 14, relative to controls): 1.16
Nervonic acid (C24:1), change of plasma metabolite, mh14 (male rats; day 14, relative to controls): 1.78
Phosphatidylcholine (C18:0/C18:2), change of plasma metabolite, mh14 (male rats; day 14, relative to controls): 1.11
Phosphatidylcholine (C18:0/C22:6), change of plasma metabolite, mh14 (male rats; day 14, relative to controls): 1.15
Sphingolipids (3- and 5-Methoxysphingosine), change of plasma metabolite, mh14 (male rats; day 14, relative to controls): 1.79
Stearic acid (C18:0), change of plasma metabolite, mh14 (male rats; day 14, relative to controls): 1.25
Threonic acid, change of plasma metabolite, mh14 (male rats; day 14, relative to controls): 2.98
1,2-Dioleoyl-sn-glycero-3-phosphatidyl-L-serine, change of plasma metabolite, mh28 (male rats; day 28, relative to controls): 1.27
Behenic acid (C22:0), change of plasma metabolite, mh28 (male rats; day 28, relative to controls): 1.34
Cholesterol, change of plasma metabolite, mh28 (male rats; day 28, relative to controls): 1.04
Eicosapentanoic acid, change of plasma metabolite, mh28 (male rats; day 28, relative to controls): 1.4
Galactose, lipid fraction, change of plasma metabolite, mh28 (male rats; day 28, relative to controls): 1.51
Lignoceric acid (C24:0), change of plasma metabolite, mh28 (male rats; day 28, relative to controls): 1.21
Nervonic acid (C24:1), change of plasma metabolite, mh28 (male rats; day 28, relative to controls): 1.17
Phosphatidylcholine (C18:0/C18:2), change of plasma metabolite, mh28 (male rats; day 28, relative to controls): 1.10
Phosphatidylcholine (C18:0/C22:6), change of plasma metabolite, mh28 (male rats; day 28, relative to controls): 1.06
Sphingolipids (3- and 5-Methoxysphingosine), change of plasma metabolite, mh28 (male rats; day 28, relative to controls): 1.46
Stearic acid (C18:0), change of plasma metabolite, mh28 (male rats; day 28, relative to controls): 1.05
Threonic acid, change of plasma metabolite, mh28 (male rats; day 28, relative to controls): 3.48

Source: patent publication US8808979B2, “Methods related to liver enzyme induction as a predisposition for liver toxicity and diseases or disorders associated therewith” (priority 2008, dated 2014)
